Assay results as given in PMC8587714, “Preliminary Assessment of the Anti-inflammatory Activity of New Structural Honokiol Analogs with a 4′-O-(2-Fluoroethyl) Moiety and the Potential of Their ^18F-Labeled Derivatives for Neuroinflammation Imaging” (Molecules, 2021).
Like-named read-outs stand apart in the source and are kept apart here.

Key:
[1] = Plasma protein binding by ultrafiltration, human plasma; format: in vitro ADME
Experimental: (§1) The ultrafiltration method was used to estimate the protein-free fraction of [^18F]F-IV and [^11C]MPbP in human and rat plasma. Equal volumes (500 μL) of plasma or PBS (control) were mixed with the formulated solution of radioligand (5 MBq,50μL) and incubated at 37 °C for 15 min. After incubation, aliquots of mixture (200 µL) were transferred to the tubes for ultrafiltration (Amicon 3K; Merck) and centrifuged at 7000 g for 15 min. Equal aliquots (20 μL) of ultrafiltrate (Cfree) and plasma (Ctotal) were measured with γ-counter. The obtained data were corrected for the radioligand binding to the filter membrane. Filtrations were performed in duplicate. The unbound (free) fraction of the radioligand was calculated as fu(%) = Cfree/Ctotal × 100%.

[2] = Plasma protein binding by ultrafiltration, rat plasma; format: in vitro ADME
Experimental: as §1

[3] = parameters: method as in doi:10.1002/slct.201904788; settings: all examined organs and brain regions; cited from earlier work
ovine COX-1 = system: ovine COX-1; parameters: method as in PMID 25074039; settings: ovine COX-1/COX-2 assay kit; cited from earlier work
ovine COX-2 = system: ovine COX-2; parameters: method as in PMID 25074039; settings: ovine COX-1/COX-2 assay kit; cited from earlier work
[4] = system: lipid peroxidation products (TBARS); experiment: TBARS assay in brain of LPS-injected mice; format: in vivo, C57BL/6 mice; settings: 10 mg/kg for 3 days, 72 h after LPS
Text: All experiments adhered to regulations of DIRECTIVE 2010/63/EU on the protection of laboratory animals. The procedures with animals were reviewed and approved by the Ethics Committee of Smorodintsev Research Institute of Influenza. […]. The animals were housed in a climate-controlled room with a 12/12-h light cycle. The subjects had ad libitum access to food and water during housing. Neuroinflammation was modeled in animals by intraperitoneal (i.p.) single injection of LPS from Escherichia coli saline O111:B4 (Sigma-Aldrich) at a dose of 2 mg/kg.
In total, 7 groups of 5 individuals in each were studied, including a group of intact animals. […]. The blood collected after decapitation was left in tubes with a serum separator for 30 min, then centrifuged at 611 g (3000 rpm) and 4 °C for 10 min. Blood and brain samples were frozen and stored at −20 °C.
The brain was weighed and 2 mL of ice-cold endotoxin-free PBS containing 0.1% non-ionic detergent Triton X-100 was added to the tissue samples left under ice for 10 min until homogenized with a tissue disruptor. […]
The supernatant diluted with buffer 1:10 was used for analysis. […] Each sample (150 μL) was loaded in duplicate into a 96-well plate, and the absorbance was measured at 535 nm on an EPOCH2TC.

IL-6 and TNF-α = experiment: Cytokine assay (ELISA) in LPS-induced neuroinflammation in mice; format: in vivo, C57BL/6 mice; settings: 10 mg/kg for 3 days, 72 h after LPS
human recombinant COX-2 [5] = biological target: T1, human recombinant COX-2 (Homo sapiens, UniProt P35354); experiment: COX (human) Inhibitor Screening Assay kit (EIA), COX-2
T1 sequence (P35354 18-604): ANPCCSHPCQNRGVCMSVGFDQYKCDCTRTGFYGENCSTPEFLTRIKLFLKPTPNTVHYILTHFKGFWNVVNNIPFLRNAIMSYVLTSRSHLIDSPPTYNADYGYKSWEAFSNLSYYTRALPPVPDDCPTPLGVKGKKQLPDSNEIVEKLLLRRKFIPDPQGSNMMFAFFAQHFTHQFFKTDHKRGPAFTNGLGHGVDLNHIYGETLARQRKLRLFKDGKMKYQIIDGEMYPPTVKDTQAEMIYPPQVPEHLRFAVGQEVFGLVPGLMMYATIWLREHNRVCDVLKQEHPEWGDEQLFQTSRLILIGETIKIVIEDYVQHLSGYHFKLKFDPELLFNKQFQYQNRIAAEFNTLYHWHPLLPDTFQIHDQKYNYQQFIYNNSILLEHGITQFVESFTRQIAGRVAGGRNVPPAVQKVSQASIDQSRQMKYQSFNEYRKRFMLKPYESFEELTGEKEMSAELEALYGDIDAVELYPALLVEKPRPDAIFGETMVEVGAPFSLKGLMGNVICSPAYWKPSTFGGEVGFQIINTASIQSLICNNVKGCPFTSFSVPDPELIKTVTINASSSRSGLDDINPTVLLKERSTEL

human recombinant COX-1 [6] = biological target: T2, human recombinant COX-1 (Homo sapiens, UniProt P23219); experiment: COX (human) Inhibitor Screening Assay kit (EIA), COX-1
[7] = logD7.4 determination, shake-flask method; format: physicochemical; settings: 1-octanol/phosphate buffer pH 7.4, n = 6; read-out: lipophilicity (logD7.4)
Experimental: The partition coefficient of [^18F]F-IV (log D7.4) was determined by the shake-flask method for measuring the distribution of radioactivity between 1-octanol and phosphate buffer pH 7.4. Into a tube containing 10 µL of [^18F]F-IV (~1 MBq), 1.5 mL of pre-saturated 1-octanol and 1.5 mL of phosphate buffer were added and vortexed for 15 min. Then, the tube was centrifuged at 3000 g for 5 min to ensure complete separation of the phases. Then, aliquots of 500 μL were taken from each phase into separate tubes and the radioactivity was measured in a γ-counter. The measurements were performed in triplicate. The log D7.4 value was calculated as follows: log (counts per min in 1-octanol/ counts per min in PBS) for five independent experiments.

[8] = Plasma-stability study (radio-HPLC); format: in vitro ADME; settings: 37 °C, up to 60 min
Experimental: The stability of [^18F]F-IV was investigated in human plasma at 37 °C in the range from 0 to 60 min according to a modified protocol. Phosphate-buffered saline (PBS, 0.15 M, pH 7.4) was used as a control. [^18F]F-IV formulated solution (10 µL, ~1 MBq) was added to tubes with PBS (300 µL) and human plasma (300 µL). The mixture was vortexed and incubated at 37 °C. An aliquot of 100 µL from the sample was taken at different time points (0, 10, 20, 40, and 60 min) and mixed with 100 µL ice-cooled acetonitrile and centrifuged (3 min, 4500× g). The supernatants were analyzed by radio-HPLC using XBridge C18 analytical column.

[9] = Ex vivo biodistribution in intact, LPS-treated and celecoxib-blocked rats; parameters: species or system Wistar rats
Experimental: Ex vivo biodistribution was intended as a preliminary assessment of the BBB permeability and overall distribution of [^18F]F-IV in LPS-treated and intact Wistar rats. [^18F]F-IV uptake by tissue was expressed as %ID/g (dose administered per gram of tissue). […] The radioligand seems to readily penetrate the BBB, as evidenced by the high initial rate of brain uptake with a peak value of 2.21 ± 0.64 and 2.09 ± 0.65 (%ID/g) in the pons and medulla, respectively, at 10 min post-injection, (Figure 6A). […] The excretion pathway was through the kidneys, and 60 min after injection there was no obvious difference in [^18F]F-IV uptake values between tissues. The lack of significant specific accumulation of radioactivity in the brain, heart, lungs, and kidneys most likely reflects the low baseline level of COX-2 expression in these organs in healthy animals. It should be noted that relatively high initial levels of radioactivity in the blood pool persisted even 120 min after injection of [^18F]F-IV (0.99 ± 0.17 vs. 1.35 ± 0.06%ID/g). This was the main difference in the distribution of [^18F]F-IV and the previously reported [^11C]MPbP in organs and tissues of intact rats.
Ex vivo radioligand biodistribution was performed by direct radiometry of organs and tissue samples of Wistar rats. Each rat was injected with (12 ± 3) MBq (volume ≤ 0.2 mL) of [^18F]F-IV through the tail vein under anesthetic conditions. Control rats were sacrificed at 10 (n = 3), 30 (n = 3), 60 (n = 3), and 120 (n = 3) min after injection. Twenty-four hours prior to ex vivo biodistribution studies, 6 rats received an intraperitoneal (i.p.) injection of LPS (2 mg/kg) from Escherichia coli (O111: B4) or saline (1 mL/kg).
Blood samples and organs of interest, namely, the brain (cerebral cortex, cerebellum, medulla, and pons), thymus, heart, lung, spleen, kidney, liver, bladder, and muscle, were removed and weighed. The radioactivity in each tissue sample was measured by a γ-counter to calculate the percentage of injected dose per gram of tissue (%ID/g). Data were provided as mean ± SEM values.

human recombinant COX-1 [10] = biological target: T2, human recombinant COX-1; parameters: purchased Cayman Chemical Company 701230; settings: human COX-1/COX-2 assay kit; cited from earlier work
human recombinant COX-2 [11] = biological target: T1, human recombinant COX-2; parameters: purchased Cayman Chemical Company 701230; settings: cited from earlier work
[12] = human plasma, read-out: PPB level, humans (converted)
[13] = unbound (free) fraction, 37 °C, n = 6, read-out: fu in Human Plasma
[14] = rat plasma, read-out: PPB level, rats (converted)
[15] = unbound (free) fraction, 37 °C, n = 3, read-out: fu in Rat Plasma
[16] = %ID organ/%ID blood, 60 min post-injection
[17] = healthy (intact) rats, 10 min post-injection

T2 sequence (P23219 24-599): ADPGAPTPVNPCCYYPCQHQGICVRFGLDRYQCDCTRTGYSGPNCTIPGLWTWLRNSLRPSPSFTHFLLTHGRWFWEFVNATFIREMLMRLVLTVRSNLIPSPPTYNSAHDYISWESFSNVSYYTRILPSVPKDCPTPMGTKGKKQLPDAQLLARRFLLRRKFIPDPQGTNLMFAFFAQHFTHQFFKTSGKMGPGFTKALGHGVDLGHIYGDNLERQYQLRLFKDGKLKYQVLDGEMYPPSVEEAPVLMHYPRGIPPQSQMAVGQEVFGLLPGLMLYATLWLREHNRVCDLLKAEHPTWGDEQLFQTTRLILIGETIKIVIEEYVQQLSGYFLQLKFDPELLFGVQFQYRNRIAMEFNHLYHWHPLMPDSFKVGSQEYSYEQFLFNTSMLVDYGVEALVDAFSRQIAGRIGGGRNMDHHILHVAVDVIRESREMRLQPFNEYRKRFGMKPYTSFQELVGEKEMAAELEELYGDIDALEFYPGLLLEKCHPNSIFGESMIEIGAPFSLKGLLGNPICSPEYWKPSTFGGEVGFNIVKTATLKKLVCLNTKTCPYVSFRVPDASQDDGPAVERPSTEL

## CCCc1ccc(O)c(-c2ccc(O[11CH3])cc2)c1 [[^11C]MPbP, 4′-[^11C]methoxy-5-propyl-1,1′-biphenyl-2-ol, reference compound]
[1]; [12]
  fraction unbound at 15 min, 9.1 MBq/mL: 0.02
[1]; [13]
  fraction unbound at 15 min, 9.1 MBq/mL: 0.0188 ± 0.0013
[2]; [14]
  fraction unbound at 15 min, 9.1 MBq/mL: 0.08
[2]; [15]
  fraction unbound at 15 min, 9.1 MBq/mL: 0.0802 ± 0.0037
[3]
  uptake in LPS rats vs healthy rats: up to 400%

## C=CCc1ccc(O)c(-c2ccc(OC)c(CC=C)c2)c1 [MH, 4′-O-methylhonokiol]
Ovine COX-1
  IC50: 2400 nM
Ovine COX-2
  IC50: 60 nM

## Cc1ccc(-c2cc(C(F)(F)F)nn2-c2ccc(S(N)(=O)=O)cc2)cc1 [Celecoxib, celecoxib, reference compound]
[4]
  reduction of TBARS levels in brain: little or no effect
IL-6 and TNF-α
  serum levels of IL-6 and TNF-α: reduced them to levels seen in intact animals

## CCCc1ccc(O)c(-c2ccc(OCCF)cc2)c1 [F-IV, 4′-(2-fluoroethoxy)-2-hydroxy-5-propyl-1,1′-biphenyl]
IL-6 and TNF-α
  serum levels of IL-6 and TNF-α: comparable or even superior to that of celecoxib
Human recombinant COX-2 [5]
  IC50: 90 nM
Human recombinant COX-2 [5]; SI = COX-1 IC50/COX-2 IC50, human assay kit, this study
  SI (Selectivity Index): 48
Human recombinant COX-1 [6]
  IC50: 4610 nM

## CCCc1ccc(O)c(-c2ccc(OCC[18F])cc2)c1 [[^18F]F-IV, 4′-(2-[^18F]fluoroethoxy)-2-hydroxy-5-propyl-1,1′-biphenyl]
[7]
  logD: 3.3 ± 0.1
[1]; [12]
  fraction unbound at 15 min, 9.1 MBq/mL: < 0.01
[1]; [13]
  fraction unbound at 15 min, 9.1 MBq/mL: 0.0019 ± 0.0005
[8]
  radiochemical stability in human plasma: 92%
[9]; [16]
  increase in radioactivity in LPS animals vs controls, kidney: 16%
  increase in radioactivity in LPS animals vs controls, liver: 23%
  increase in radioactivity in LPS animals vs controls, lung: 12%
  increase in radioactivity in LPS animals vs controls, spleen: 20%
  increase in radioactivity in LPS animals vs controls, thymus: 20%
  increase in uptake in LPS-treated vs saline-injected rats, medulla: 16%
  increase in uptake in LPS-treated vs saline-injected rats, pons: 5%
[9]; LPS rats, celecoxib 10 mg/kg i.v. 30 min before radioligand, brain (pons and medulla), heart, lung, kidney
  reduction in radioactivity by celecoxib blocking: 20–32%
[9]; [17]
  brain uptake peak value, medulla: 2.09 ± 0.65 %ID/g
  brain uptake peak value, pons: 2.21 ± 0.64 %ID/g
[9]; intact rats, 120 min after injection
  radioactivity in the blood pool: 0.99 ± 0.17 %ID/g
[9]; intact rats, initial (10 min) level
  radioactivity in the blood pool, initial level: 1.35 ± 0.06 %ID/g
[2]; [14]
  fraction unbound at 15 min, 9.1 MBq/mL: < 0.02
[2]; [15]
  fraction unbound at 15 min, 9.1 MBq/mL: 0.0201 ± 0.0026

## CCCc1ccc(O)c(-c2ccc(OCCF)c(OC)c2)c1 [F-III, 4′-(2-fluoroethoxy)-3′-methoxy-5-propyl-2-hydroxy-1,1′-biphenyl]
[4]
  reduction of TBARS levels in brain: 116%

## CCCc1ccc(O)c(-c2ccc(OC)cc2)c1 [MPbP]
Human recombinant COX-2 [5]; from experimental IC50 values
  experimental ddG between MPbP and F-IV for COX-2: 0.22 kcal/mol
Human recombinant COX-1 [10]
  IC50: 2530 nM
Human recombinant COX-2 [11]; SI = COX-1 IC50/COX-2 IC50, human assay kit
  SI (Selectivity Index): 18
Human recombinant COX-2 [11]; human COX-1/COX-2 assay kit
  IC50: 140 nM
